Assay results as given in patent US10759767B2 (priority 2012, dated 2020).

Experiments:
Assay type in all cases: cell-based
Septoria tritici = test: Microtest: activity against leaf blotch on wheat caused by Septoria tritici (Septtr); details: second Septtr microtest, solo product
Alternaria solani = test: Microtest: activity against early blight caused by Alternaria solani (Alteso)
Leptosphaeria nodorum = test: Microtest: activity against wheat leaf spots caused by Leptosphaeria nodorum (Leptno)
Botrytis cinerea = test: Microtest: activity against the grey mold Botrytis cinerea (Botrci)

SMILES: Cc1ccc(-c2c(Cl)nc(C#N)n2S(=O)(=O)N(C)C)cc1 [II-12, cyazofamid, reference compound]
- Observed efficacy (Septoria tritici; 16 ppm): 40%
- Observed efficacy (Alternaria solani; solo 4 ppm): 14
- Observed efficacy (Alternaria solani; solo 16 ppm): 35

SMILES: Cn1cc(C(=O)Nc2ccccc2-c2cc(F)c(F)c(F)c2)c(C(F)F)n1 [II-42, fluxapyroxad, reference compound]
- Observed efficacy (Alternaria solani; solo 0.001 ppm): 4
- Observed efficacy (Alternaria solani; solo product, 0.001 ppm): 4%

SMILES: CCN(Cc1ccc(Cl)nc1)/C(=C/[N+](=O)[O-])NC [Nitenpyram]
- Observed efficacy (Septoria tritici; 63 ppm): 10%
- Observed efficacy (Alternaria solani; solo 4 ppm): 2
- Observed efficacy (Alternaria solani; solo 16 ppm): 2
- Observed efficacy (Alternaria solani; solo 63 ppm): 8
- Observed efficacy (Leptosphaeria nodorum; solo 63 ppm): 23

SMILES: CO/N=C(/C1=NOCCO1)c1ccccc1Oc1ncnc(Oc2ccccc2Cl)c1F [II-37, fluoxastrobin, reference compound]
- Observed efficacy (Alternaria solani; solo 0.016 ppm): 11

SMILES: CCC(=O)C1=C([O-])CC(C(=O)[O-])CC1=O.[Ca+2] (stereo not shown) [Prohexadion-Ca]
- Observed efficacy (Septoria tritici; 63 ppm): 15%
- Observed efficacy (Alternaria solani; solo 4 ppm): 6
- Observed efficacy (Alternaria solani; solo 16 ppm): 2
- Observed efficacy (Alternaria solani; solo 63 ppm): 2
- Observed efficacy (Leptosphaeria nodorum; solo 63 ppm): 23
- Observed efficacy (Botrytis cinerea; solo 4 ppm): 10
- Observed efficacy (Botrytis cinerea; solo 16 ppm): 5
- Observed efficacy (Botrytis cinerea; solo 63 ppm): 4

SMILES: CC1(C)CCC(Cc2ccc(Cl)cc2)C1(O)Cn1cncn1 (stereo not shown) [Metconazol]
- Observed efficacy (Septoria tritici; 0.016 ppm): 24%
- Observed efficacy (Alternaria solani; solo 0.016 ppm): 17

SMILES: C[N+]1(C)CCCCC1.[Cl-] [Mepiquat-cl]
- Observed efficacy (Septoria tritici; 63 ppm): 16%
- Observed efficacy (Alternaria solani; solo 16 ppm): 10
- Observed efficacy (Alternaria solani; solo 63 ppm): 16
- Observed efficacy (Leptosphaeria nodorum; solo 63 ppm): 28
- Observed efficacy (Botrytis cinerea; solo 16 ppm): 11

SMILES: CO/C=C(/C(=O)OC)c1ccccc1Oc1cc(Oc2ccccc2C#N)ncn1 [II-3, azoxystrobin, reference compound]
- Observed efficacy (Alternaria solani; solo 0.004 ppm): 6
- Observed efficacy (Alternaria solani; solo 0.016 ppm): 14
- Observed efficacy (Botrytis cinerea; solo 4 ppm): 14
- Observed efficacy (Botrytis cinerea; solo 16 ppm): 23

SMILES: O=C(Nc1ccccc1-c1ccc(Cl)cc1)c1cccnc1Cl [II-7, boscalid, reference compound]
- Observed efficacy (Alternaria solani; solo 0.001 ppm): 5
- Observed efficacy (Alternaria solani; solo 0.004 ppm): 6
- Observed efficacy (Leptosphaeria nodorum; solo 4 ppm): 23

SMILES: CCOC(=O)C1CC(=O)C(=C(O)C2CC2)C(=O)C1 (stereo not shown) [II-3a, trinexapac-ethyl, reference compound]
- Observed efficacy (Septoria tritici; 4 ppm): 13%
- Observed efficacy (Alternaria solani; solo 4 ppm): 12
- Observed efficacy (Alternaria solani; solo 16 ppm): 27
- inhibition of growth at 63 ppm (Leptosphaeria nodorum; Parastagonospora nodorum, 168 h, solo 63 ppm, read-out: Observed efficacy): 17%

SMILES: Cc1ccc(C(C)NC(=O)[C@@H](NC(=O)OC(C)C)C(C)C)cc1 (stereo partly shown) [II-51, iprovalicarb, reference compound]
- Observed efficacy (Alternaria solani; solo 4 ppm): 1
- Observed efficacy (Alternaria solani; solo 16 ppm): 2
- Observed efficacy (Alternaria solani; solo 63 ppm): 1
- Observed efficacy (Leptosphaeria nodorum; solo 16 ppm): 19
- Observed efficacy (Botrytis cinerea; solo 4 ppm): 2
- Observed efficacy (Botrytis cinerea; solo 16 ppm): 3
- Observed efficacy (Botrytis cinerea; solo 63 ppm): 6

SMILES: N#Cc1nn(-c2c(Cl)cc(C(F)(F)F)cc2Cl)c(N)c1[S+]([O-])C(F)(F)F (stereo not shown) [II-20c, fipronil, reference compound]
- Observed efficacy (Alternaria solani; solo 1 ppm): 6
- Observed efficacy (Alternaria solani; solo 4 ppm): 2

SMILES: CC(C)C1C2CCC1c1c(NC(=O)c3cn(C)nc3C(F)F)cccc12 (stereo not shown) [II-50, isopyrazam, reference compound]
- Observed efficacy (Alternaria solani; solo 0.016 ppm): 15
- Observed efficacy (Botrytis cinerea; solo 0.016 ppm): 6

SMILES: CN1COCN(Cc2cnc(Cl)s2)/C1=N\[N+](=O)[O-] [Thiamethoxam]
- Observed efficacy (Septoria tritici; 1 ppm): 57%
- Observed efficacy (Alternaria solani; solo 1 ppm): 10
- Observed efficacy (Alternaria solani; solo 4 ppm): 51
- Observed efficacy (Leptosphaeria nodorum; solo 1 ppm): 22
- Observed efficacy (Leptosphaeria nodorum; solo 4 ppm): 51

SMILES: CCCCCCCCc1c(CC)nc2ncnn2c1N [II-1, ametoctradin, reference compound]
- Observed efficacy (Alternaria solani; solo 4 ppm): 5
- Observed efficacy (Alternaria solani; solo 16 ppm): 2
- Observed efficacy (Alternaria solani; solo 63 ppm): 6
- Observed efficacy (Botrytis cinerea; solo 16 ppm): 3
- Observed efficacy (Botrytis cinerea; solo 63 ppm): 4

SMILES: OC(Cc1ccccc1Cl)(Cn1nc[nH]c1=S)C1(Cl)CC1 (stereo not shown) [Prothioconazol]
- Observed efficacy (Septoria tritici; 0.016 ppm): 17%
- Observed efficacy (Alternaria solani; solo 1 ppm): 66
- Observed efficacy (Leptosphaeria nodorum; solo 1 ppm): 43
- Observed efficacy (Botrytis cinerea; solo 1 ppm): 36
- Observed efficacy (Botrytis cinerea; solo 4 ppm): 72

SMILES: N#Cc1c(Cl)c(Cl)c(Cl)c(C#N)c1Cl [II-11, chlorothalonil, reference compound]
- Observed efficacy (Leptosphaeria nodorum; solo 1 ppm): 28
